Source: patent publication US12258308B2, “Benzene derivative” (ONO PHARMACEUTICAL CO., LTD., priority 2018, dated 2025)

What was measured:
rat Schwann cells = test: In vitro test using Schwann cells (Schwann cell differentiation promotion, MAG immunostaining); format: cell-based; details: Rattus norvegicus, 72 h, 3 days, MAG-positive area/cell nuclei; for activity at 0.3 µM: compound 0.3 μmol/L, read-out: Schwann cell differentiation promotion rate (% of vehicle) 0.3 μmol/L; for activity at 3 µM: compound 3 μmol/L, read-out: Schwann cell differentiation promotion rate (% of vehicle) 3 μmol/L
Experimental: Biological Experiment Example 1: In Vitro Test Using Schwann Cells
• (1) Preparation of rat Schwann cells
A dorsal root ganglion (abbreviated as “DRG”, hereinafter) was excised from a newborn rat aged 0 to 2 days in a clean bench and was collected in DMEM. After the collection, the tube was centrifuged at 400 g, at room temperature for 3 minutes, then a supernatant was discarded, and a 0.25% collagenase solution was added. There resultant solution was incubated at 37° C. for 30 minutes to disperse and separate the excised DRG, and was then centrifuged at room temperature at 400 g for 3 minutes, then a supernatant was discarded, and then 0.25% Trypsin/EDTA and DNaseI were added. After the incubation at 37° C. for 30 minutes, trypsin was inactivated with DMEM supplemented with 10% FBS (10% FBS-DMEM), and centrifugation was carried out at room temperature at 400 g for 3 minutes. A supernatant was discarded, then 10% FBS-DMEM was added to the residue to prepare a cell suspension, and then the cell suspension was allowed to pass through a filter (diameter: 70 μm). The number of cells in the cell suspension which passed through the filter was counted to prepare a solution having a concentration of 2.0×10^5 cells/mL, and the suspension was seeded in a poly-D-lysine-coated 96-well black-clear plate in an amount of 100 μL/well and was then statically cultured in a CO2 incubator under the conditions including 5% of CO2, 95% of air and 37° C.
The culture medium in the cell culture plate was removed by suction using an aspirator, and then DMEM supplemented with 1% dialyzed FBS and 100 μmol/L dibutyryl cyclic AMP was added. Subsequently, a solution of a compound of the present invention dissolved in DMSO was added, and the resultant solution was statically cultured in a C02 incubator under the conditions including 5% of C02, 95% of air and a temperature of 37° C. The final concentration of the compound of the present invention in each well in the cell culture plate was adjusted to 0.1, 0.3, 1 or 3 μmol/L.
Three days after the treatment with the compound, formaldehyde was added to each well in the cell culture plate, and the cell culture plate was allowed to stand at room temperature for 30 minutes or longer. A supernatant was discarded, and then a 0.3% tritonX-100 solution was added to each well, and then the cell culture plate was allowed to stand at room temperature for 20 minutes or longer. A supernatant was discarded, then a 5-μg/mL anti-myeline-associated glycoprotein antibody (anti-MAG antibody) solution was added to each well, and then the cell culture plate was allowed to stand at room temperature for 60 minutes or longer or at 4° C. (acceptable range: 1 to 9° C.) overnight. Each well was washed with a 0.1% tritonX-100 solution three times, then a 10-μg/mL Alexa fluor 488 anti-mouse IgG solution was added to each well, and then the cell culture plate was allowed to stand at room temperature for 60 or longer or at 4° C. overnight. Each well was washed with a 0.1% tritonX-100 solution four times, and then a 1-μg/mL Hoechst33342 solution was added to each well to stain nuclei.
The Mag-positive area and the number of cell nuclei in a fluorescent image were calculated. With respect to each of the MAG-positive area and the number of cell nuclei, the sum total of values obtained in 5 viewing fields/well was determined. The values were employed as a value for the MAG-positive area and a value for the number of cell nuclei, respectively, in each well. Subsequently, a value determined by dividing the value for the MAG-positive area in each well by the value for the number of cell nuclei in the well (i.e., MAG/cell nuclei numerical value) was calculated. The Schwann cell differentiation promotion rate was determined for each of the vehicles in accordance with the following formula. […]

[1] = test system: streptozotocin-induced rat model; test: Test using streptozotocin-induced rat model (nociceptive threshold, von Frey); format: in vivo; details: for Nociceptive threshold improve rate (%) 7 days after withdrawal of administration: 0.3 mg/kg oral once per day day 14 to 28, 35 days after STZ; for Nociceptive threshold improve rate (%) After initial single administration: 14 days after STZ, 2 hours after administration; for Nociceptive threshold improve rate (%) 7 days after start of administration: 21 days after STZ; for Nociceptive threshold improve rate (%) 14 days after start of administration: 28 days after STZ
Experimental: Biological Experiment Example 2: Test Using Streptozotocin-Induced Rat Model
In order to evaluate the therapeutic effect of each of the compounds of the present invention on diabetic peripheral neuropathy, an in vivo test using a streptozotocin model was carried out.
A model was produced by intravenously administering streptozotocin (abbreviated as “STZ”, hereinafter) one time at a dose amount of 55 mg/kg to a rat.
(2) Measurement of Nociceptive Threshold
The rat was placed in a clear acryl measurement cage once or more times for 10 minutes or longer until the administration of STZ started. In this manner, the rat was acclimated to the measurement environment. Eight von Frey filaments respectively having weights of 0.4, 0.6, 1, 2, 4, 6, 8 and 15 g were applied vertically to a hindpaw of the rat from under a metallic mesh floor. When a quick escape or flinching reaction was observed, it was determined that a positive reaction occurred (i.e., “response was observed”). Each of the compounds of the present invention was administered orally once per day in a period from day 14 to day 28 after the administration of STZ, wherein the dose amount of each of the compounds was 0.03, 0.3 or 3 mg/kg. A nociceptive threshold was measured 2 hours after the administration of each of the compounds of the present invention at the timings of before the administration of STZ, 14 days after the administration of STZ (i.e., the day of the start of the administration of each of the compounds of the present invention), 21 days after the administration of STZ (i.e., 7 days after the start of the administration of the compound), 28 days after the administration of STZ (i.e., 14 days after the start of the administration of the compound), and 35 days after the administration of STZ (i.e., 7 days after the withdrawal of the administration of the compound).
The nociceptive threshold was measured by the up-down method in accordance with the method of Chaplan et. al. (J Neurosci Methods. 1994; 53:55-63). The rate of improvement in the nociceptive threshold was calculated in accordance with the following formula. Nociceptive threshold improve rate (%)=(nociceptive threshold on each of the number of days elapsed after administration of STZ−B)/(A−B)×100 [Math 2] • A: Nociceptive threshold before administration of STZ • B: Nociceptive threshold on 14 days elapsed after administration of STZ (Results)
The results of the nociceptive thresholds and the nociceptive threshold improve rates obtained when each of the compounds of the present invention was administered at a dose amount of 0.3 mg/kg are shown in the FIGURE and Table 2, respectively. With respect to all of the compounds, a potent pain relief effect against peripheral neuropathy was observed. With respect to the compound of Example 11, for example, the improvement in the nociceptive threshold was observed from 7 days after the start of the administration of the compound, and this effect lasted even 7 days after the withdrawal of the administration.

Row | Compound | activity at 0.3 µM (rat Schwann cells) [%] | activity at 3 µM (rat Schwann cells) [%] | Nociceptive threshold improve rate (%) 7 days after withdrawal of administration [1] [%] | Nociceptive threshold improve rate (%) After initial single administration ([1]; 0.3 mg/kg oral once per day) [%] | Nociceptive threshold improve rate (%) 7 days after start of administration ([1]; 0.3 mg/kg oral once per day) [%] | Nociceptive threshold improve rate (%) 14 days after start of administration ([1]; 0.3 mg/kg oral once per day) [%] | Pain relief effect against peripheral neuropathy ([1]; 0.3 mg/kg oral once per day, STZ rat)
1 | O=C(O)CCc1ccccc1OCC[C@@H](O)CCc1cccc(C(O)Cc2ccccc2)c1 (stereo in doubt) [Example 36, 3-[2-[(3S)-3-Hydroxy-5-[3-[(1R)-1-hydroxy-2-phenylethyl]phenyl]pentoxy]phenyl]propanoic acid] | 126 | 732 | 57.4 ± 10.74 | 3.6 ± 7.07 | 57.1 ± 13.78 | 64.2 ± 13.02 | –
2 | O=C(O)CCc1ccccc1OCC[C@@H](O)CCc1cccc(C(O)Cc2ccccc2)c1 (stereo in doubt) [Example 37, 3-[2-[(3S)-3-Hydroxy-5-[3-[(1S)-1-hydroxy-2-phenylethyl]phenyl]pentoxy]phenyl]propanoic acid] | 171 | 915 | 58.7 ± 19.84 | −11.9 ± 10.78 | 61.3 ± 16.58 | 78.9 ± 9.85 | –
3 | O=C(O)CCc1ccccc1OCC[C@@H](O)/C=C/c1cccc(NS(=O)(=O)c2ccccc2)c1 [Example 11, 3-[2-[(E,3R)-5-[3-(Benzenesulfonamido)phenyl]-3-hydroxypent-4-enoxy]phenyl]propanoic acid] | 114 | 248 | 41.1 ± 13.71 | −14.6 ± 6.37 | 26.6 ± 9.30 | 27.1 ± 8.39 | a sustained pain relief effect was confirmed
4 | O=C(O)CCc1ccccc1OCC[C@@H](O)/C=C/c1cccc(NC(=O)c2ccccc2)c1 [Example 12(1), 3-[2-[(E,3R)-5-(3-Benzamidophenyl)-3-hydroxypent-4-enoxy]phenyl]propanoic acid] | 120 | 274 | 9.1 ± 13.37 | 6.2 ± 5.72 | 17.4 ± 17.19 | 44.6 ± 11.54 | –
5 | O=C(O)CCc1ccccc1OCC[C@@H](O)/C=C/c1cccc2c1CCN2S(=O)(=O)c1ccccc1 [Example 13(15), 3-[2-[(E,3R)-5-[1-(Benzenesulfonyl)-2,3-dihydroindol-4-yl]-3-hydroxypent-4-enoxy]phenyl]propanoic Acid] | 219 | 326 | 7.1 ± 9.51 | −15.4 ± 14.26 | 15.9 ± 7.17 | 8.5 ± 11.50 | –
6 | O=C(O)CCc1ccccc1OCC[C@@H](O)/C=C/c1ccc2c(c1)CN(S(=O)(=O)c1ccccc1)C2 [Example 13(16), 3-[2-[(E,3R)-5-[2-(Benzenesulfonyl)-1,3-dihydroisoindol-5-yl]-3-hydroxypent-4-enoxy]phenyl]Propanoic Acid] | 170 | 377 | −7.8 ± 14.90 | −6.0 ± 3.87 | 25.8 ± 5.28 | 29.6 ± 8.19 | –
7 | O=C(O)CCc1ccccc1OCC[C@@H](O)/C=C/c1cccc(NS(=O)(=O)C2CCCC2)c1 [Example 74(13), 3-[2-[(E,3R)-5-[3-(Cyclopentylsulfonylamino)phenyl]-3-hydroxypent-4-enoxy]phenyl]propanoic acid] | 79.9 | 184 | 76.3 ± 13.41 | 2.6 ± 1.69 | 28.3 ± 7.44 | 57.3 ± 17.63 | –
8 | O=C(O)CCc1ccccc1OCCC/C=C/c1cccc(NS(=O)(=O)c2ccccc2)c1 [Example 84, 3-[2-[(E)-5-[3-(Benzenesulfonamido)phenyl]pent-4-enoxy]phenyl]propanoic acid] | 162 | 445 | 58.8 ± 12.51 | 5.7 ± 2.48 | 35.0 ± 16.24 | 49.9 ± 11.50 | –
